# Target: thromboxane A2 receptor (TBXA2R) (Gα13) (Homo sapiens, UniProt P21731)
# Assay: BRET² G protein dissociation assay, TBXA2R with Gα13
# Assay type: cell-based
# Conditions: for Mean (plotted), G protein dissociation BRET² signal: TBXA2R-G13, Fig. 5c source data
# Protocol: G protein dissociation assays were performed according to the original protocols of the TRUPATH BRET² assay[47],[87] but with subtle modifications as previously described[61],[88],[89]. All reagents and cells were obtained from Thermo Fisher Scientific unless indicated otherwise. The coding sequences for the G protein biosensors[47] (Gα12-Rluc8, Gα13-Rluc8, wt Gβ3, and Gγ9-GFP), the wt GPR55, the construct used for cryo-EM (with GFP bearing a G67A mutation to disrupt fluorescence properties[48] for BRET² assays), GPR55 binding pocket mutants (G152^4.56F, G152^4.56W, N171^ECL2Q, N171^ECL2A, T176^5.33A, R253^6.62A), and the wt TBXA2R were codon-optimized for Homo sapiens, gene-synthesized, and sub-cloned into pcDNA^TM3.1(+) between NheI and HindIII restriction sites by GeneArt (Thermo Fisher Scientific). […] Freshly grown cells were washed with Dulbecco’s Balanced Salt Solution (DPBS, cat. #14200075) and detached using trypsin-ethylenediaminetetraacetic acid (trypsin-EDTA) (cat. #25300-062). Then, the cells were reconstituted to 500,000 cells per mL with fresh medium, and 1,000,000 cells were seeded into each well of a 6-well plate. After 3 h incubation at 37 °C and 5% CO2, adherent cells were transfected with 600 ng DNA (1:1:1:1 ratio of plasmid DNA for GPR55, wt Gβ3, Gγ9-GFP, and Gα12-Rluc8 or Gα13-Rluc8). Plasmid DNA was mixed with 1.5 µL Lipofectamine^TM 2000 (cat. #11668027) in Opti-MEM^TM medium (cat. #31985062) and incubated for 20 min. Then, the mixture was added to each well of the 6-well plate following 24 h incubation at 37 °C and 5% CO2. Transfected cells were washed with DPBS, detached using EDTA (Versene, cat. #15040066), and reconstituted into fresh medium at 500,000 cells mL^−1. From this suspension, 50,000 cells were seeded into each well of a white-bottom 96-well plate (Nunc^TM MicroWell^TM 96 wells, cat. #136101) following overnight incubation at 37 °C and 5% CO2. Then, the adherent cells were washed with assay medium [Hank’s balanced salt solution (HBSS, cat. #14065056) plus 20 mM HEPES pH 7.4 (cat. #15630056)] and finally reconstituted into 50 µL of the same medium. […] Methoxy e-Coelenterazine was used as luciferase substrate (Prolume Purple, NanoLight Technology, cat. #369), reconstituted at 1 mM in methanol and diluted to 37.5 µM with assay buffer (7.5 µM final assay concentration). The assay was started by the addition of 20 µL luciferase substrate to each well of the assay plate using a Multidrop^TM Combi reagent dispenser (Thermo Fisher Scientific), followed by 5 min incubation at room temperature. Then, 30 µL of agonist dilutions or DMSO control was added (final DMSO concentration 1.5%), followed by an additional 5 min incubation at room temperature.
# Chain of thromboxane A2 receptor (TBXA2R) (Gα13) (P21731 whole entry, species assumed): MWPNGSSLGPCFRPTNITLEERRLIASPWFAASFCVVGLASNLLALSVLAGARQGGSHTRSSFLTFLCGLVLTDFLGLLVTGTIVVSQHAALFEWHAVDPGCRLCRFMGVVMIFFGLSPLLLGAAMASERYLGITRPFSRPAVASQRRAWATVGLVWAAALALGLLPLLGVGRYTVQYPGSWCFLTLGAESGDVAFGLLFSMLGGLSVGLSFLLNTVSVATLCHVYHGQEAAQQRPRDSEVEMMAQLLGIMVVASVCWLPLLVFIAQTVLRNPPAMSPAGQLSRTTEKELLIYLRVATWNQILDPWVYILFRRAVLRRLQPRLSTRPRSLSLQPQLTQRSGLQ
# Chain of thromboxane A2 receptor (TBXA2R) (Gα13) (Q14344 whole entry partner, species assumed): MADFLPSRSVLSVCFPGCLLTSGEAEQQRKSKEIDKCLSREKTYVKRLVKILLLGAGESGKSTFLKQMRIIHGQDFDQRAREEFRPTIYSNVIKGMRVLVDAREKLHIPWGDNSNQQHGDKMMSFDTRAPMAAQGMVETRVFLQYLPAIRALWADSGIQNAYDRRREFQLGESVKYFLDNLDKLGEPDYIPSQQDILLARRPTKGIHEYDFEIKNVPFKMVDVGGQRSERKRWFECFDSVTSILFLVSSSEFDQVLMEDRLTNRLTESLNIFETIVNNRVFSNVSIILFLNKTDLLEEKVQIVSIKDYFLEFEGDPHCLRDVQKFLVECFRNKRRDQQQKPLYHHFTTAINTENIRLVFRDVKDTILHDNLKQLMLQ
# Chain of thromboxane A2 receptor (TBXA2R) (Gα13) (P16520 whole entry partner, species assumed): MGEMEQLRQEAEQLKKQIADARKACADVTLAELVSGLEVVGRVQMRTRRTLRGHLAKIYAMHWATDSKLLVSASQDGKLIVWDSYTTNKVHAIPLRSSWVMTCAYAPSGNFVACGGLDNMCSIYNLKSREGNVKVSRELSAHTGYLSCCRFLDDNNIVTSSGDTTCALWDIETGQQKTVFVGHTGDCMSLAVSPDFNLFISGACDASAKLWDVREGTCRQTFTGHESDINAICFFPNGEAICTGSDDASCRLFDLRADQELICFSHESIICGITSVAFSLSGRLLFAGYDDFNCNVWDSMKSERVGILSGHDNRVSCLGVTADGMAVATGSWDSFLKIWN
# Chain of thromboxane A2 receptor (TBXA2R) (Gα13) (O14610 1-66 partner limits assumed, species assumed): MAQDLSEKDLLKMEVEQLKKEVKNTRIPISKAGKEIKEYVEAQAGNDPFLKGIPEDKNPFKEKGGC
SMILES,"Mean (plotted), G protein dissociation BRET² signal (concentration 300 pM)","Mean (plotted), G protein dissociation BRET² signal (concentration 1e-9 M)","Mean (plotted), G protein dissociation BRET² signal (concentration 3e-9 M)","Mean (plotted), G protein dissociation BRET² signal (concentration 1e-8 M)","Mean (plotted), G protein dissociation BRET² signal (concentration 3e-8 M)","Mean (plotted), G protein dissociation BRET² signal (concentration 1e-7 M)","Mean (plotted), G protein dissociation BRET² signal (concentration 3e-7 M)","Mean (plotted), G protein dissociation BRET² signal (concentration 1e-6 M)","Mean (plotted), G protein dissociation BRET² signal (concentration 3e-6 M)","Mean (plotted), G protein dissociation BRET² signal (concentration 1e-5 M)","Mean (plotted), G protein dissociation BRET² signal (concentration 3e-5 M)","Efficacy ± SEM (%) (TBXA2, Gα13)","pEC50 ± SEM (TBXA2, Gα13)","EC50 (TBXA2R via Gα13, read-out: potency (EC50)) [nM]","Mean (plotted), G protein dissociation BRET² signal (concentration 10 pM)","Mean (plotted), G protein dissociation BRET² signal (concentration 30 pM)"
"Cc1cccc(N2CCN(C(=O)c3cc(S(=O)(=O)N(C)C)ccc3N3CCCC3)CC2)c1C [ML184, 3-[[4-(2,3-dimethylphenyl)-1-piperazinyl]carbonyl]-N,N-dimethyl-4-(1-pyrrolidinyl)benzenesulfonamide]",-0.002664,-0.001942,-0.0001851,0.008857,0.0122,0.01041,0.01174,0.01712,0.01801,0.01748,0.01231,–,–,–,–,–
CCCCC[C@H](O)/C=C/[C@@H]1[C@@H](C/C=C\CCCC(=O)O)[C@H]2CO[C@@H]1C2 [U-46619],-0.03967,-0.07222,-0.103,–,-0.1326,–,-0.1394,-0.1409,–,–,–,100 ± 2,9.03 ± 0.11,0.93,0.004083,0.00585
